Assay results: the supplement of paper PMC10307832

Experiments:
Assay in all cases: relative viability (nuclei count vs DMSO), 5 days (fraction); higher = more cells survive
Ponatinib + Trametinib = compound: Cc1ccc(C(=O)Nc2ccc(CN3CCN(C)CC3)c(C(F)(F)F)c2)cc1C#Cc1cnc2cccnn12 [Ponatinib] + CC(=O)Nc1cccc(-n2c(=O)n(C3CC3)c(=O)c3c(Nc4ccc(I)cc4F)n(C)c(=O)c(C)c32)c1 [Trametinib] (partner 0.02 µM)
Summary of the method: (§1)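 One day after seeding in 1536-well plates, lung cancer cell lines were dosed by pin tool. Dosing was either single-drug or a fixed anchor-drug dose plus five library-drug doses (not always all listed) in √10 steps. After 5 days, nuclei were stained in one fix-and-stain step and counted on 4× images, and relative viability is the nuclei count of treated wells over that of vehicle wells, given as the median of duplicate plates.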

Ponatinib + Palbociclib = compound: Cc1ccc(C(=O)Nc2ccc(CN3CCN(C)CC3)c(C(F)(F)F)c2)cc1C#Cc1cnc2cccnn12 [Ponatinib] + CC(=O)c1c(C)c2cnc(Nc3ccc(N4CCNCC4)cn3)nc2n(C2CCCC2)c1=O [Palbociclib] (partner 0.5 µM)
Summary of the method: as §1

Ponatinib + Navitoclax = compound: Cc1ccc(C(=O)Nc2ccc(CN3CCN(C)CC3)c(C(F)(F)F)c2)cc1C#Cc1cnc2cccnn12 [Ponatinib] + CC1(C)CCC(c2ccc(Cl)cc2)=C(CN2CCN(c3ccc(C(=O)NS(=O)(=O)c4ccc(N[C@H](CCN5CCOCC5)CSc5ccccc5)c(S(=O)(=O)C(F)(F)F)c4)cc3)CC2)C1 [Navitoclax] (partner 0.5 µM)
Summary of the method: as §1

Ponatinib + Linsitinib = compound: Cc1ccc(C(=O)Nc2ccc(CN3CCN(C)CC3)c(C(F)(F)F)c2)cc1C#Cc1cnc2cccnn12 [Ponatinib] + C[C@]1(O)C[C@@H](c2nc(-c3ccc4ccc(-c5ccccc5)nc4c3)c3c(N)nccn32)C1 [Linsitinib] (partner 1 µM)
Summary of the method: as §1

Ponatinib + Dasatinib = compound: Cc1ccc(C(=O)Nc2ccc(CN3CCN(C)CC3)c(C(F)(F)F)c2)cc1C#Cc1cnc2cccnn12 [Ponatinib] + Cc1nc(Nc2ncc(C(=O)Nc3c(C)cccc3Cl)s2)cc(N2CCN(CCO)CC2)n1 [Dasatinib] (partner 0.075 µM)
Summary of the method: as §1

Row | Cell Line | relative viability (Ponatinib + Trametinib; first compound 0.002 µM) | relative viability (Ponatinib + Trametinib; first compound 0.006325 µM) | relative viability (Ponatinib + Trametinib; first compound 0.06325 µM) | relative viability (Ponatinib + Trametinib; first compound 0.2 µM) | relative viability (Ponatinib + Palbociclib; first compound 0.002 µM) | relative viability (Ponatinib + Palbociclib; first compound 0.006325 µM) | relative viability (Ponatinib + Palbociclib; first compound 0.06325 µM) | relative viability (Ponatinib + Palbociclib; first compound 0.2 µM) | relative viability (Ponatinib + Navitoclax; first compound 0.002 µM) | relative viability (Ponatinib + Navitoclax; first compound 0.006325 µM) | relative viability (Ponatinib + Navitoclax; first compound 0.06325 µM) | relative viability (Ponatinib + Navitoclax; first compound 0.2 µM) | relative viability (Ponatinib + Linsitinib; first compound 0.002 µM) | relative viability (Ponatinib + Linsitinib; first compound 0.006325 µM) | relative viability (Ponatinib + Linsitinib; first compound 0.06325 µM) | relative viability (Ponatinib + Linsitinib; first compound 0.2 µM) | relative viability (Ponatinib + Dasatinib; first compound 0.002 µM) | relative viability (Ponatinib + Dasatinib; first compound 0.006325 µM) | relative viability (Ponatinib + Dasatinib; first compound 0.06325 µM) | relative viability (Ponatinib + Dasatinib; first compound 0.2 µM)
1 | 201T | 0.705 | 0.733 | 0.762 | 0.693 | 0.367 | 0.359 | 0.351 | 0.328 | 1.2 | 1.21 | 1.22 | 1.23 | 0.958 | 1.11 | 1.06 | 1.01 | 0.61 | 0.593 | 0.593 | 0.461
2 | A549 | – | – | – | – | – | – | – | – | 1.17 | 1.11 | 1.37 | 1.16 | 0.612 | 0.632 | 0.688 | 0.591 | – | – | – | –
3 | A-427 | 0.79 | 0.732 | 0.719 | 0.531 | 0.511 | 0.535 | 0.528 | 0.438 | 0.916 | 0.971 | 1.07 | 0.854 | 1.06 | 1.09 | 1.21 | 0.981 | 0.696 | 0.784 | 0.721 | 0.481
4 | ABC-1 | – | – | – | – | 0.571 | 0.693 | 0.877 | 0.646 | – | – | – | – | 1.07 | 0.881 | 0.794 | 0.973 | 0.465 | 0.614 | 0.539 | 0.629
5 | BEN | 1.02 | 0.967 | 0.982 | 0.768 | 0.453 | 0.528 | 0.469 | 0.47 | 0.0656 | 0.0538 | 0.0585 | 0.0666 | 0.858 | 0.985 | 0.846 | 0.87 | 0.255 | 0.279 | 0.257 | 0.311
6 | CAL-12T | 0.315 | 0.311 | 0.332 | 0.239 | 0.295 | 0.524 | 0.622 | 0.535 | 1.07 | 1.16 | 1.43 | 1.24 | 0.791 | 0.773 | 1.12 | 0.899 | 0.48 | 0.37 | 0.365 | 0.219
7 | COR-L23 | 0.526 | 0.593 | 0.372 | 0.387 | 0.271 | 0.287 | 0.272 | 0.229 | 0.977 | 0.912 | 1 | 0.901 | 0.9 | 0.826 | 0.889 | 0.741 | 0.526 | 0.502 | 0.666 | 0.433
8 | COR-L 105 | 0.429 | 0.479 | 0.473 | 0.457 | 0.351 | 0.4 | 0.404 | 0.447 | 0.832 | 0.8 | 0.832 | 0.955 | 0.944 | 0.875 | 1.39 | 1.04 | 0.314 | 0.41 | 0.344 | 0.341
9 | Calu-6 | – | – | – | – | – | – | – | – | 0.828 | 0.682 | 0.941 | 0.717 | 0.956 | 0.964 | 0.932 | 0.747 | – | – | – | –
10 | ChaGo-K-1 | 0.863 | 0.907 | 0.914 | 0.815 | 0.887 | 0.964 | 0.936 | 0.856 | 0.914 | 1.18 | 1.05 | 0.954 | – | – | – | – | 0.487 | 0.567 | 0.488 | 0.509
11 | EBC-1 | – | – | – | – | – | – | – | – | 0.504 | 0.534 | 0.358 | 0.304 | 0.857 | 0.983 | 0.985 | 0.927 | – | – | – | –
12 | EKVX | 0.328 | 0.338 | 0.424 | 0.362 | 0.382 | 0.419 | 0.458 | 0.438 | 0.878 | 0.907 | 1.04 | 0.735 | 0.927 | 1.04 | 1.24 | 1.02 | 0.56 | 0.624 | 0.502 | 0.483
13 | EMC-BAC-2 | 0.875 | 0.897 | 0.91 | 0.718 | 0.469 | 0.486 | 0.476 | 0.42 | 1.06 | 1.07 | 1.19 | 1.11 | 0.82 | 0.824 | 0.914 | 0.776 | 0.335 | 0.319 | 0.323 | 0.305
14 | EPLC-272H | 0.271 | 0.309 | 0.345 | 0.22 | 0.292 | 0.34 | 0.376 | 0.332 | 0.989 | 1.23 | 1.18 | 1.05 | 1.06 | 1.24 | 1.31 | 0.801 | 0.359 | 0.33 | 0.376 | 0.279
15 | H3255 | 0.62 | 0.655 | 0.607 | 0.554 | 0.325 | 0.312 | 0.297 | 0.297 | 0.477 | 0.501 | 0.725 | 0.479 | 0.849 | 0.951 | 1.06 | 0.885 | 0.326 | 0.317 | 0.387 | 0.367
